Source: patent publication US20050009840A1 (SUGEN, INC., priority 2003, published 2005)

Target: T1, Met kinase domain (GST fusion protein) (Homo sapiens, UniProt P08581)
T1 construct: Purified GST fusion protein containing the Met kinase domain
Experiment: Met transphosphorylation assay (ELISA, poly(glu-tyr) substrate);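 note: Cell-free ELISA with plate-bound poly(Glu:Tyr 4:1) phosphorylated by GST-fused Met kinase domain plus ATP and Mn2+, phosphotyrosine detected by anti-phosphotyrosine antibody with HRP and ABTS read-out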
Format: biochemical
Details: plain numbers in column Met IC50 (μM) of Table 2; read-out: Met IC50

T1 sequence (P08581 1078-1345 limits assumed): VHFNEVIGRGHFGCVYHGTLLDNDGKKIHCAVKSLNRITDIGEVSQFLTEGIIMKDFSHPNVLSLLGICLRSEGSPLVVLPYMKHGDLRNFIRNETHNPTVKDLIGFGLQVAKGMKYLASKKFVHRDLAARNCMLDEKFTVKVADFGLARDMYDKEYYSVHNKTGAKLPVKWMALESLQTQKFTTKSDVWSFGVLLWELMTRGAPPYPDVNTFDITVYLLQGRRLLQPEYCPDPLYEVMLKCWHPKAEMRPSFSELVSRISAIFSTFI

| IC50 [µM] | SMILES |
| --- | --- |
| 0.0393 | CC(Oc1cc(-c2ccc(N)nc2)cnc1N)c1c(F)ccc(F)c1Cl (stereo not shown) [Example I-516, 5-[1-(2-Chloro-3,6-difluoro-phenyl)-ethoxy]-[3,3′]bipyridinyl-6,6′-diamine] |
| 0.209 | CC(Oc1cc(-c2cc(C(=O)N3CCN(C)CC3)ccn2)cnc1N)c1c(F)ccc(F)c1Cl (stereo not shown) [Example I-518, {6′-Amino-5′-[1-(2-chloro-3,6-difluoro-phenyl)-ethoxy]-[2,3′]bipyridinyl-4-yl}-(4-methyl-piperazin-1-yl)-methanone] |
| 0.466 | CC(Oc1cc(-c2cccc(C(=O)N3CCN(C)CC3)n2)cnc1N)c1c(F)ccc(F)c1Cl (stereo not shown) [Example I-519, {6′-Amino-5′-[1-(2-chloro-3,6-difluoro-phenyl)-ethoxy]-[2,3′]bipyridinyl-6-yl}-(4-methyl-piperazin-1-yl)-methanone] |
| 0.134 | CC(Oc1cc(-c2cncc(C(=O)N3CCN(C)CC3)c2)cnc1N)c1c(F)ccc(F)c1Cl (stereo not shown) [Example I-520, {6′-Amino-5′-[1-(2-chloro-3,6-difluoro-phenyl)-ethoxy]-[3,3′]bipyridinyl-5-yl}-(4-methyl-piperazin-1-yl)-methanone] |
| 0.0716 | CC(Oc1cc(-c2ccc(C(=O)N3CCN(C)CC3)nc2)cnc1N)c1c(F)ccc(F)c1Cl (stereo not shown) [Example I-521, {6′-Amino-5′-[1-(2-chloro-3,6-difluoro-phenyl)-ethoxy]-[3,3′]bipyridinyl-6-yl}-(4-methyl-piperazin-1-yl)-methanone] |
| 0.0626 | CC(Oc1cc(-c2ccnc(C(=O)N3CCN(C)CC3)c2)cnc1N)c1c(F)ccc(F)c1Cl (stereo not shown) [Example I-522] |
| 0.0677 | CC(Oc1cc(-c2ccccn2)cnc1N)c1c(Cl)ccc(F)c1Cl (stereo not shown) [Example I-523, 5′-[1-(2,6-Dichloro-3-fluoro-phenyl)-ethoxy]-[2,3′]bipyridinyl-6′-ylamine] |
| 0.612 | CC(Oc1cc(-c2ccccn2)cnc1N)c1c(F)ccc(F)c1Cl (stereo not shown) [Example I-524, 5′-[1-(2-Chloro-3,6-difluoro-phenyl)-ethoxy]-[2,3′]bipyridinyl-6′-ylamine] |
| 0.552 | CC(Oc1cc(-c2cncnc2)cnc1N)c1c(F)ccc(F)c1Cl (stereo not shown) [Example I-526, 3-[1-(2-Chloro-3,6-difluoro-phenyl)-ethoxy]-5-pyrimidin-5-yl-pyridin-2-ylamine] |
| 0.0385 | CC(Oc1cc(-c2ccc(C(=O)N3CCN(C)CC3)cn2)cnc1N)c1c(Cl)ccc(F)c1Cl (stereo not shown) [Example I-527, {6′-Amino-5′-[1-(2,6-dichloro-3-fluoro-phenyl)-ethoxy]-[2,3′]bipyridinyl-5-yl}(4-methyl-piperazin-1-yl)-methanone] |
| 0.0659 | CC(Oc1cc(-c2ccncc2)cnc1N)c1c(F)ccc(F)c1Cl (stereo not shown) [Example I-528, 5-[1-(2-Chloro-3,6-difluoro-phenyl)-ethoxy]-[3,4′]bipyridinyl-6-ylamine] |

| SMILES | IC50 [µM] |
| --- | --- |
| CC(Oc1cc(-c2cccnc2)cnc1N)c1c(F)ccc(F)c1Cl (stereo not shown) [Example I-525, 5-[1-(2-Chloro-3,6-difluoro-phenyl)-ethoxy]-[3,3′]bipyridinyl-6-ylamine] | 0.0777 |
| CC(Oc1cc(OCc2ccccc2)cnc1N)c1c(F)ccc(F)c1Cl (stereo not shown) [Example I-529, 5-Benzyloxy-3-[1-(2-chloro-3,6-difluoro-phenyl)-ethoxy]-pyridin-2-ylamine] | 2.58 |
| CCC(CC)COc1cnc(N)c(OC(C)c2c(F)ccc(F)c2Cl)c1 (stereo not shown) [Example I-530, 3-[1-(2-Chloro-3,6-difluoro-phenyl)-ethoxy]-5-(2-ethyl-butoxy)-pyridin-2-ylamine] | 4.08 |
| CC(C)CCOc1cnc(N)c(OC(C)c2c(F)ccc(F)c2Cl)c1 (stereo not shown) [Example I-531, 3-[1-(2-Chloro-3,6-difluoro-phenyl)-ethoxy]-5-(3-methyl-butoxy)-pyridin-2-ylamine] | 2.4 |
| CCCCOc1cnc(N)c(OC(C)c2c(F)ccc(F)c2Cl)c1 (stereo not shown) [Example I-532, 3-[1-(2-Chloro-3,6-difluoro-phenyl)-ethoxy]-5-butoxy-pyridin-2-ylamine] | 1.94 |
